Laboratory results as given in US20240175863A1, “COMPOSITIONS AND METHODS FOR MONITORING ENPP1 ACTIVITY” (The Regents of University of Californa, priority 2021, published 2024).
Read-outs that look alike come from different tables or passages of the source.

Tests used:
cardiac fibroblasts [1] = test: myocyte conditioned medium transferred to cardiac fibroblasts, cell death (substance added to cardiomyocytes); format: cell-based, mouse; settings: for cardiac fibroblast cell death by conditioned medium of cardiomyocytes treated with AMP plus inhibitor: inhibitor added to cardiomyocytes at the time of addition of AMP; for cardiac fibroblast cell death by conditioned medium of cardiomyocytes treated with the substance alone: conditioned medium collected after 24 hours
cardiac fibroblasts [2] = test: direct treatment of cardiac fibroblasts with metabolites or inhibitors, cell death and rescue; format: cell-based, mouse
[3] = test system: ENPP1 over-expressing cardiac fibroblasts; test: co-culture of ENPP1 over-expressing cardiac fibroblasts with rodent ventricular cardiomyocytes plus ATP; format: cell-based, mouse
cardiac fibroblasts [4] = test: rescue of cardiac fibroblast cell death induced by ENPP1+ATP myocyte conditioned medium (substance added to fibroblasts); format: cell-based, mouse; settings: for cell death of cardiac fibroblasts treated with ENPP1+ATP myocyte conditioned medium in presence of the substance: substance added to cardiac fibroblasts
From the text: Unable to readily identity the pro-apoptotic metabolites, the studies sought alternative physiologic principles of approaching the problem. The data has consistently shown that the ENPP1+ATP myocyte conditioned medium caused death of a wide range of non-myocyte cells, but that myocytes themselves are not affected. This could be possibly secondary to a specific receptor that is present in non-myocytes and not in myocytes. However, as non-myocyte cells of different lineages are affected, it was hypothesized that the ability of myocytes to be immune to the conditioned medium likely reflects an inherent cellular property of myocytes that distinguishes itself from that in non-myocyte cells tested by us. As non-myocytes are proliferative and myocytes are non-proliferative, it was hypothesized that the ability to cycle was making the non-myocytes susceptible to the metabolites secreted by the myocyte. To determine whether this was true, the studies harvested primary cardiac fibroblasts and induced cell cycle arrest of freshly harvested cardiac fibroblasts by irradiating them.
It also provided an obvious explanation as to why non-proliferative myocytes are immune to the effects of the metabolite(s). A nucleotide balance between the content of purines and pyrimidines available to cycling cells is critical to avoid genotoxic stress and maintain genomic stability. It was hypothesized that disruption of the nucleotide biosynthetic pathways in non-myocyte cells and an imbalance of purine versus pyrimidine nucleotides was inducing genotoxic stress and initiating a DNA damage response in proliferating non-myocytes. The studies treated cardiac fibroblasts with ENPP1+ATP myocyte conditioned medium for 24 hours and measured the content of nucleoside monophosphate and nucleoside triphosphates in treated cardiac fibroblasts by LC/MS-MS. […] To determine whether this is true, the studies attempted to rescue cell death of cardiac fibroblasts by adding uridine or deoxycytidine to the ENPP1+ATP myocyte conditioned medium. Cardiac fibroblasts were treated with the ENPP1+ATP myocyte conditioned medium but uridine or deoxycytidine or both were added to the cardiac fibroblasts at the time of addition of ENPP1+ATP myocyte conditioned medium (FIG. 5C). […] Deoxycytidine serves as a precursor of dCTP synthesis via the enzyme deoxycytidine kinase.
Pyrimidine biosynthesis occurs via a sequence of well-regulated steps (FIG. 5H), where carbamoyl phosphate is converted to carbamoyl aspartate and then to dihydroorotate. Dihydroorotate dehydrogenase (DHODH) then converts dihydroorotate to the pyrimidine orotate. In the presence of phosphoribosyl pyrophosphate (PRPP), orotate is converted by phosphoribosyl transferase activity of UMP synthase to orotidine monophosphate (OMP) and then decarboxylated by OMP decarboxylase activity of UMP synthase to uridine monophosphate (UMP). To determine which steps in pyrimidine biosynthesis are affected in cycling non-myocytes, the studies treated cardiac fibroblasts with ENPP1+ATP myocyte conditioned medium and 24 hours later harvested the cells and subjected the cardiac fibroblasts to mass spectrometry to determine metabolites in the pyrimidine biosynthesis pathway. […] As orotate levels were increased but orotidine levels decreased in cardiac fibroblasts treated with ENPP1+ATP myocyte conditioned medium, it was hypothesized that inhibition was occurring at the OMP synthesis step from orotate and PRPP (orotate phosphoribosyl transferase). […]

[5] = test system: primary mouse embryonic fibroblasts (mEF); test: mouse embryonic fibroblasts treated with ENPP1+ATP myocyte conditioned medium, cell death; format: cell-based
ENPP1 = biological target: T1, ENPP1 (UniProt P22413); test: cell free luciferase based luminescent assay for ENPP1 inhibitors; format: biochemical
T1 sequence (P22413 1-925): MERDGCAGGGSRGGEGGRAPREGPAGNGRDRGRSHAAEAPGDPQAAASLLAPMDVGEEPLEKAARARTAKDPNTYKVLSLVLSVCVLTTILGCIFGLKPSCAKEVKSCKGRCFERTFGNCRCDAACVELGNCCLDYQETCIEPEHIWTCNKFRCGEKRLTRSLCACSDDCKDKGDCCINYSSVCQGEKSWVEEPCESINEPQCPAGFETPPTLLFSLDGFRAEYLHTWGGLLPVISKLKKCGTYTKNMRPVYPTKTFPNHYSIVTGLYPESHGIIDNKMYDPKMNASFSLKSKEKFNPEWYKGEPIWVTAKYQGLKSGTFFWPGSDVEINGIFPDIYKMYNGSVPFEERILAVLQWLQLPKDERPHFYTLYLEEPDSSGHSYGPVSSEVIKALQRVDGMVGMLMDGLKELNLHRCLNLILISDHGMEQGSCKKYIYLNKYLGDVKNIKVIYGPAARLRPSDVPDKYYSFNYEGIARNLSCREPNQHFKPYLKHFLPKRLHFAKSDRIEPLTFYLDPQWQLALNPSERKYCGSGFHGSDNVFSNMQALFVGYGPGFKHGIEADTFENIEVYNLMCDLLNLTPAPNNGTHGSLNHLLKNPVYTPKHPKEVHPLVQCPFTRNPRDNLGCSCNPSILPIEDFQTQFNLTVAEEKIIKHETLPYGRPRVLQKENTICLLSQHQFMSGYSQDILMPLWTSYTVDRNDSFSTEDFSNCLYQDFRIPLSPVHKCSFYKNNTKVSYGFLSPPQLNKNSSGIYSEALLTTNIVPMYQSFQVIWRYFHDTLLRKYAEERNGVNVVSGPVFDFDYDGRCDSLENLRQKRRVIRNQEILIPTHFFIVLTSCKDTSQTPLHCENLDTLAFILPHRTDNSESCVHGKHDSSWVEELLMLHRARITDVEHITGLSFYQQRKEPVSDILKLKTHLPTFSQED

[6] = test system: gamma H2A.X and p53Ser15 phosphorylation in non-myocyte cells; test: immunostaining of DNA damage response in non-myocyte cells of injured hearts; format: in vivo, mouse; settings: hearts of myricetin treated animals
pyrimidine biosynthesis = test: metabolomic analysis of hearts and serum after cardiac injury; format: in vivo, mouse
[7] = test system: C57BL/6 animals subjected to ischemic cardiac injury
[8] = myricetin versus vehicle treated injured hearts
[9] = myricetin versus vehicle, day 3
[10] = 30 mg/kg myricetin intra-peritoneally daily for 14 days
[11] = 30 mg/kg myricetin intra-peritoneally daily for 14 days, day 7 after injury, n=15
[12] = uridine continuous infusion for 14 days
[13] = uridine continuous infusion for 14 days, day 7 after injury, mean±S.E.M., n=15

C[C@H](Nc1cc(Cl)nc2c1cnn2[C@@H]1O[C@H](COP(=O)(O)CP(=O)(O)O)[C@@H](O)[C@H]1O)c1ccccc1F [AB680]
cardiac fibroblast cell death by conditioned medium of cardiomyocytes treated with AMP plus inhibitor (cardiac fibroblasts [1]): significantly increases cardiac fibroblast cell death

Nc1ncnc2nc(-c3ccc(N4CCOCC4)nc3)cc(-c3cccc(Br)c3)c12 [ABT-702]
cardiac fibroblast cell death by conditioned medium of cardiomyocytes treated with AMP plus inhibitor (cardiac fibroblasts [1]): attenuated cell death

Nc1ncnc2c1ncn2[C@@H]1O[C@H](COP(=O)(O)O)[C@@H](O)[C@H]1O [AMP, Adenosine monophosphate]
cell death of cardiac fibroblasts treated directly with the substance(s) (cardiac fibroblasts [2]): did not induce cell death | cardiac fibroblast cell death by conditioned medium of cardiomyocytes treated with the substance alone (cardiac fibroblasts [1]): caused cell death

Nc1ncnc2c1ncn2[C@@H]1O[C@H](COP(=O)(O)CP(=O)(O)O)[C@@H](O)[C@H]1O [AMP-CP]
cardiac fibroblast cell death by conditioned medium of cardiomyocytes treated with AMP plus inhibitor (cardiac fibroblasts [1]): significantly increases cardiac fibroblast cell death

Nc1ncnc2c1ncn2[C@@H]1O[C@H](COP(=O)(O)OP(=O)(O)OP(=O)(O)O)[C@@H](O)[C@H]1O [ATP]
reduction in the number of ENPP1 over-expressing cardiac fibroblasts ([3]; ATP added to co-culture with neonatal rat ventricular cardiomyocytes, within 48 hours): 75%

COc1ccc(-c2nc([C@@H](C)Sc3nc(N)cc(N)n3)c(C)s2)cc1OCCN1CCOCC1 [DI-87]
rescue by deoxycytidine of ENPP1+ATP conditioned medium induced cell death in presence of deoxycytidine kinase inhibitor (cardiac fibroblasts [4]): unable to prevent cell death

CCNC(=O)[C@H]1O[C@@H](n2cnc3c(N)ncnc32)[C@H](O)[C@@H]1O [NECA]
cardiac fibroblast cell death by conditioned medium of cardiomyocytes treated with the substance alone (cardiac fibroblasts [1]): did not cause fibroblast cell death

O=C(O)c1cc(=O)[nH]c(=O)n1[C@@H]1O[C@H](COP(=O)(O)O)[C@@H](O)[C@H]1O [OMP, orotidine monophosphate]
cell death of cardiac fibroblasts treated with adenine and adenosine plus the substance (cardiac fibroblasts [2]): rescue of cell death | cell death of cardiac fibroblasts treated with ENPP1+ATP myocyte conditioned medium in presence of the substance (cardiac fibroblasts [4]): completely rescued cell death

O=P(O)(O)OP(=O)(O)O [PPi, pyrophosphate]
cardiac fibroblast cell death by conditioned medium of cardiomyocytes treated with the substance alone (cardiac fibroblasts [1]): not

Nc1ncnc2nc[nH]c12 [adenine, Adenine]
cell death of cardiac fibroblasts after removal of the compound from the set of 7 compounds (cardiac fibroblasts [2]): no cell death | cell death of cardiac fibroblasts treated directly with the substance(s) (cardiac fibroblasts [2]): no cell death was observed

Nc1ncnc2c1ncn2[C@@H]1O[C@H](CO)[C@@H](O)[C@H]1O [adenosine, Adenosine]
cardiac fibroblast cell death by conditioned medium of cardiomyocytes treated with the substance alone (cardiac fibroblasts [1]): unable to induce cell death

Cc1c(-c2ccc(-c3ccccc3F)cc2)nc2ccc(F)cc2c1C(=O)O [brequinar]
cell death of cardiac fibroblasts treated directly with the substance(s) (cardiac fibroblasts [2]): cardiac fibroblast cell death

Nc1ccn([C@H]2C[C@H](O)[C@@H](CO)O2)c(=O)n1 [deoxycytidine]
cell death of cardiac fibroblasts treated with ENPP1+ATP myocyte conditioned medium in presence of the substance (cardiac fibroblasts [4]): completely rescued cell death

CO[C@@]12[C@H](COC(N)=O)C3=C(C(=O)C(C)=C(N)C3=O)N1C[C@@H]1N[C@@H]12 [mitomycin C]
cell death of cardiac fibroblasts treated with ENPP1+ATP myocyte conditioned medium in presence of the substance (cardiac fibroblasts [4]): resistant to cell death | cell death of mEF treated with ENPP1+ATP myocyte conditioned medium after cell cycle arrest [5]: prevented cell death

O=c1c(O)c(-c2cc(O)c(O)c(O)c2)oc2cc(O)cc(O)c12 [myricetin]
inhibition of ENPP1 enzymatic activity (ENPP1): ~99% | cell death of cardiac fibroblasts in co-culture after addition of ATP ([3]; concomitant addition of myricetin (10 uM)): significantly attenuated cell death | p53Ser15 phosphorylation in non-myocyte cells [6]: attenuated | expression of gamma H2A.X in non-myocyte cells ([6]; 7 days following injury): attenuated expression | carbamoyl aspartate in the hearts (pyrimidine biosynthesis; myricetin versus vehicle injected animals (FIG. 8K legend)): decreased | carbamoyl phosphate levels in the injured regions of the heart (pyrimidine biosynthesis; [8]): decrease | level of cytidine in the injured regions of the heart (pyrimidine biosynthesis; [8]): significant increase | level of uridine in the injured regions of the heart (pyrimidine biosynthesis; [8]): significant increase | deoxyuridine in serum (pyrimidine biosynthesis; [9]): increased | orotate in serum (pyrimidine biosynthesis; [9]): decrease | orotidine in serum (pyrimidine biosynthesis; myricetin versus vehicle, day 7): increased | cardiac fibroblast cell death with conditioned medium of cardiomyocytes treated with ENPP1+ATP plus substance, versus ENPP1+ATP conditioned medium (cardiac fibroblasts [1]): significant reduction in cell death | fraction of animals with severe fibrosis (>40% of the LV surface area) [7, 10]: 15% | fraction of animals with severe heart failure (EF<20%) [7, 10]: 23% | LVIDs (ventricular chamber size) [7, 11]: 3.68±0.23 | ejection fraction [7, 11]: 38.04±3.74% | fractional shortening [7, 11]: 18.67±2.05% | body weight ([7]; mouse, in vivo): without any change | capillary density ([7]; myricetin, versus vehicle): significant increase | ventricular hypertrophy ([7]; myricetin, versus vehicle): decreased | area of scarring at the mid ventricular and apical regions ([7]; myricetin, 4 weeks post injury, versus vehicle): significantly reduced

O=c1ccn([C@@H]2O[C@H](CO)[C@@H](O)[C@H]2O)c(=O)[nH]1 [uridine, Uridine]
cell death of cardiac fibroblasts treated with adenine and adenosine plus the substance (cardiac fibroblasts [2]): rescue of cell death | cell death of cardiac fibroblasts treated with brequinar plus uridine (cardiac fibroblasts [2]): rescue | cell death of cardiac fibroblasts treated with the 7 compounds together with uridine (cardiac fibroblasts [2]): cell death was prevented | cell death of cardiac fibroblasts treated with ENPP1+ATP myocyte conditioned medium in presence of the substance (cardiac fibroblasts [4]): completely rescued cell death | animals with severe post infarct fibrosis (>40% of LV surface area) [7, 12]: none | fraction of animals with severe depression in EF (less than 20%) [7, 12]: 13% | end systolic ventricular diameters ([7]; uridine continuous infusion for 14 days, versus vehicle): trend towards better preservation | ejection fraction (EF) [7, 13]: 37.02±3.12% | fractional shortening (FS) [7, 13]: 18.01±1.68% | heart weight/body weight ratios ([7]; uridine, versus vehicle): decreased | capillary density ([7]; uridine, 4 weeks following injury): significantly increased | fibrosis measured at the apex and mid ventricle ([7]; uridine, 4 weeks post injury, versus vehicle): decreased fibrosis
